Source: ChEMBL document CHEMBL1135592, “Structural determinants of A(3) adenosine receptor activation: nucleoside ligands at the agonist/antagonist boundary” (J Med Chem, 2002)

Columns and labels:
[1] = molecular target: T1, Adenosine receptor A3 (Homo sapiens, UniProt P0DMS8); experiment: Affinity for human Adenosine A3 receptor expressed in CHO cell; type: cell-based
T1 sequence (P0DMS8 whole entry): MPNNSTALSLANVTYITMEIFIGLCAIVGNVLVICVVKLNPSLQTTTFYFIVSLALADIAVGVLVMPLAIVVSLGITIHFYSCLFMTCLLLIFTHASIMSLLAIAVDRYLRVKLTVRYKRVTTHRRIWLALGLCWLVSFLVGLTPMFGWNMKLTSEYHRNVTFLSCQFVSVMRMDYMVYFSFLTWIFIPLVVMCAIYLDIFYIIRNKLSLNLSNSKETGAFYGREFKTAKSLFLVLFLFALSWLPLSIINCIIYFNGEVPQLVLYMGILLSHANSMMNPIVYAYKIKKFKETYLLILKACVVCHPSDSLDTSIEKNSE

[2] = molecular target: T1, Adenosine receptor A3; experiment: Effect on forskolin-stimulated cyclic AMP production in intact chinese hamster ovary (CHO) cell expressing the human Adenosine A3 receptor; type: functional
[3] = molecular target: T1, Adenosine receptor A3; experiment: Affinity towards human Adenosine A3 receptor in CHO cell; type: cell-based
[4] = molecular target: T2, Adenosine receptor A3 (Rattus norvegicus, UniProt P28647); experiment: Binding affinity of adenosine derivative for endogenous rat Adenosine A3 receptor of RBL-2H3
T2 sequence (P28647 whole entry): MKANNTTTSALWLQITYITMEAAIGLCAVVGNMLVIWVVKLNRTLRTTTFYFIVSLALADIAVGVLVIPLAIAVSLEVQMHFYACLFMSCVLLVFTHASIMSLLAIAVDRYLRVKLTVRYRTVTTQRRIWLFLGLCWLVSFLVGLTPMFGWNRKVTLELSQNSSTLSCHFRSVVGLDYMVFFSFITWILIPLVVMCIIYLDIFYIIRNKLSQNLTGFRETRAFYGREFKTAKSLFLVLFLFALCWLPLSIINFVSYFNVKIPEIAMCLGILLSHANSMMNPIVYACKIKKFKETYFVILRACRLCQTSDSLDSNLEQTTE

[5] = molecular target: T2, Adenosine receptor A3; experiment: Binding affinity of adenosine derivative for recombinant rat Adenosine A3 receptor expressed on CHO cell
[6] = molecular target: T1, Adenosine receptor A3; experiment: biochemical
Description: Binding affinity in membrane of CHO cell stably expressing recombinant human Adenosine A3 receptor in the presence of GTPgammaS using [3H]8-ethyl-4-methyl-2-phenyl-(8R)-4,5,7,8-tetrahydro-1H-imidazo[2,1-i]-purin-5-one as radioligand

[7] = molecular target: T1, Adenosine receptor A3; experiment: biochemical; remark: listed apart in the source
Description: Bnding affinity in membrane of CHO cell stably expressing recombinant human Adenosine A3 receptor using [3H]8-ethyl-4-methyl-2-phenyl-(8R)-4,5,7,8-tetrahydro-1H-imidazo[2,1-i]-purin-5-one as radioligand

[8] = molecular target: Adenosine receptor A3 (Homo sapiens, UniProt P0DMS8); experiment: Binding affinity towards Adenosine A3 receptor (W243 mutant receptor)
[9] = molecular target: T1, Adenosine receptor A3; experiment: Binding affinity towards human Adenosine A3 receptor wild type
[10] = molecular target: Adenosine receptor A3 (Homo sapiens, UniProt P0DMS8, H95A); experiment: Binding affinity towards Adenosine A3 receptor (H95A mutant receptor)
[11] = molecular target: Adenosine receptor A3 (Homo sapiens, UniProt P0DMS8, W243A); experiment: Binding affinity towards Adenosine A3 receptor (W243 A mutant receptor)
Adenosine receptor A3 (Homo sapiens, UniProt P0DMS8, W243A), sequence (P0DMS8 whole entry W243A): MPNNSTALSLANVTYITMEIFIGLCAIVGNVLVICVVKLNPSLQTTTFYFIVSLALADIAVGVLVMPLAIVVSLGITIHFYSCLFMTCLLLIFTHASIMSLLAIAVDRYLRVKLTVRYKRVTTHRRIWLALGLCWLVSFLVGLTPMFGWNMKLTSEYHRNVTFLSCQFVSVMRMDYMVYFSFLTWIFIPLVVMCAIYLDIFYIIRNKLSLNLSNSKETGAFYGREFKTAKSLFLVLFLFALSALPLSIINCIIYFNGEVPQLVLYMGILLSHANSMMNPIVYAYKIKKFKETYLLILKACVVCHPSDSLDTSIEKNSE

Adenosine receptor A3 (Homo sapiens, UniProt P0DMS8, H95A), sequence (P0DMS8 whole entry H95A): as the sequence (P0DMS8 whole entry W243A) above, with H95A, A243W counted along it

SMILES	Ki [1] [nM]	EC50 [2] [nM]	Ki [9] [nM]	Ki [11] [nM]	other results
CNC(=O)C12CC1C(n1cnc3c(NC)nc(Cl)nc31)C(O)C2O (configuration not stated)	3.4	1.4			
CNC(=O)[C@H]1O[C@@H](n2cnc3c(NCc4cccc(I)c4)nc(Cl)nc32)[C@@H]2O[C@@H]21					Ki [3]: 1100 nM
CCCCn1c(=O)c2c(ncn2[C@@H]2O[C@H](C(=O)NC)[C@@H](O)[C@H]2O)n(CCCC)c1=O	816	828			
OCC12CC1C(n1cnc3c(NCc4cccc(I)c4)nc(Cl)nc31)C(O)C2O (configuration not stated)	1.9		1.7		Ki [4]: 2.9 nM; Ki [5]: 1.3 nM; Ki [6]: 4 nM; Ki [7]: 2.7 nM; Ki [8]: 1.3 nM; Ki [10]: 460 nM
Nc1nc(Cl)nc2c1ncn2C1C(O)C(O)C2(CO)CC12 (configuration not stated)			83	46	
Nc1nc(Cl)nc2c1ncn2[C@@H]1O[C@H](CO)[C@@H](O)[C@H]1O	87	1630			
O=C1NCC[C@@]12O[C@@H](n1cnc3c(NCc4cccc(I)c4)ncnc31)[C@H](O)[C@@H]2O					Ki [4]: 51 nM; Ki [5]: 49 nM
OC[C@H]1O[C@@H](n2cnc3c(NC4CCCC4)ncnc32)[C@H](O)[C@@H]1O [N6-CYCLOPENTYLADENOSINE]		242	142	137	Ki [10]: 615 nM
CNC(=O)C12CC1C(n1cnc3c(NCc4cccc(I)c4)ncnc31)C(O)C2O (configuration not stated)	1.3	5.4	2.1	1.2	
OCC12CC1C(n1cnc3c(NCc4cccc(I)c4)ncnc31)C(O)C2O (configuration not stated)	9.2		3.9	2.7	Ki [10]: 99 nM
OCC12CC1C(n1cnc3c(NCc4cccc(I)c4)nc(Cl)nc31)C1OC12 (configuration not stated)	572		584	490	
OC[C@H]1O[C@@H](n2cnc3c(NCc4cccc(I)c4)nc(Cl)nc32)[C@H](O)[C@@H]1O					Ki [4]: 2.7 nM; Ki [5]: 1.6 nM
Nc1nc(F)nc2c1ncn2[C@@H]1O[C@H](CO)[C@@H](O)[C@H]1O	99	2660			
CCCOC(=O)c1c(-c2ccccc2)nc(CC)c(C(=O)SCC)c1CCC			238		Ki [4]: 357 nM; Ki [5]: 234 nM; Ki [8]: 2150 nM
